According to patent US20210038515A1 (Azurity Pharmaceuticals, Inc., priority 2014, published 2021):

Legend:
in vitro = settings: human, Caco-2
Procedure: Caco-2 cells are used as an in vitro model of the human intestinal epithelium and permit assessment of the intestinal permeability of potential drugs. Vancomycin is added to either the apical or basolateral side of a confluent monolayer of Caco-2 cells and permeability is measured by monitoring the appearance of the Vancomycin on the opposite side of the monolayer using LC-MS/MS. When performing a bi-directional assay, the efflux ratio (ER) is calculated from the ratio of B->A and A->B permeabilities.
The permeability measure of vancomycin in the apical to basolateral (A->B) and basolateral to apical (B->A) direction across Caco-2 cells, and to determine the efflux ratio.

Clostridium difficile = assay: Agar dilution MIC of vancomycin preparations (Sigma, Cutis), diluent, Na benzoate and Na citrate; type: cell-based; settings: tested separately at concentrations exceeding those present in the diluent
Procedure: Introduction: The purpose of the study was to compare the MICs obtained with the formulation of vancomycin HCL of the invention (Cutis) to formulations obtained using a vancomycin HCL reference standard powder obtained from Sigma. The Example also involves the analysis of a solution or diluent to determine if it has antimicrobial activity at the concentrations present in the agar dilution test.
The C. difficile were tested by agar dilution according to the procedures in the Clinical and Laboratory Standards Institute. 2012. Methods for antimicrobial susceptibility testing of anaerobic bacteria; approved standard-seventh edition.
Other anaerobic organisms included clinical isolates of Bifidobacterium adolescentis and Bacteroides fragilis. Clostridium difficile ATCC 700057 was included as a quality control strain.
The C. difficile isolates were recovered from patients with CDI during the past two years and stored at −70° C. in 20% skim milk. Ribotyping was performed by another reference laboratory. The strains were taken from the freezer and subcultured at least twice to ensure purity and good growth.
On the day of testing, they were suspended in Brucella broth to the turbidity of the 0.5 McFarland standard for testing.
Stock solution of the Sigma vancomycin was prepared in water and stored at −70° C. On the day of testing, it was thawed and further diluted in water to obtain the desired range of 16-0.125 μg/ml. The Cutis vancomycin (25 mg/ml) was reconstituted on the day of testing and further diluted for a final range of 16-0.125 μg/ml in the test. The antimicrobials were added to molten Brucella agar supplemented with vitamin K and hemin to prepare the plates. Drug-free growth controls were included for testing before and after each set of plates. All testing was done in triplicate.
The organisms were pipetted into the wells of the Steers replicator head and applied to the plates with the multi-pronged replicator. The final concentration of organisms was ˜10^5 CFU/spot.
The plates were incubated in the anaerobic chamber incubator for 44 h and examined for growth.
The Cutis diluent comprises: water, about 0.12% (w/v) citric acid (anhydrous), 0.2% (w/v) sucralose, about 0.05% (w/v) artificial grape flavor, 0.1% (w/v) sodium benzoate, about 0.0002% (w/v) D&C Yellow No. 10 and about 0.000038% (w/v) FD&C Red No. 40.

C. difficile = assay: MIC by reference agar dilution method (CLSI M11-A8) of stored vancomycin preparations; type: cell-based, Clostridium difficile; settings: for MIC, average of triplicate: Fresh
[1] = system: Staphylococcus aureus ATCC 29213; assay: MIC by reference agar dilution method (CLSI M11-A8), quality control strain; type: cell-based; settings: Fresh
Procedure: The vancomycin hydrochloride solution of the invention and the IV solution were reconstituted to a concentration of 25 mg/ml. […] The MICs were determined by the reference agar dilution method (CLSI M11-A8). All serial two-fold dilutions were prepared on the same day and added to molten agar to prepare plates.
The in vitro activity was tested for three different preparations of vancomycin freshly reconstituted, and stored at ambient and at refrigerated temperatures. The C. difficile strains were selected to represent the most frequently encountered ribotypes.
Plates were prepared by adding 1 ml of lysed sheep blood and two mls of the twofold dilutions of the vancomycin preparations to molten agar. Plates were mixed, poured and allowed to harden. Suspensions of the organisms were applied to the plates using a Steers replicating device that delivered approximately 10^5 cfu/spot. Each preparation was tested in triplicate. Plates were incubated at 37° C. for 48 h.
Plates were examined for growth.

[2] = orally-administered; cited from earlier work

For `COCCc1ccc(OCC(O)CNC(C)C)cc1` (stereo not shown) [Metoprolol], which Papp A→B (in vitro) is on record?
The Papp A→B was 11.6 ×10⁻⁶ cm/s.

And the Papp B→A (in vitro)?
Its Papp B→A is 30 ×10⁻⁶ cm/s.

Which growth inhibition (Clostridium difficile) does the source give for `O=C([O-])c1ccccc1.[Na+]` [Na benzoate] here?
The growth inhibition was “no inhibition”.

Which growth inhibition (Clostridium difficile) does the source give for `O=C([O-])CC(O)(CC(=O)[O-])C(=O)[O-].[Na+].[Na+].[Na+]` [Na citrate] here?
Its growth inhibition is “no inhibition”.

Which Papp A→B (in vitro) does the source give for `CNC(=C[N+](=O)[O-])NCCSCc1ccc(CN(C)C)o1` [Ranitidine] here?
Its Papp A→B is 0.3 ×10⁻⁶ cm/s.

And the Papp B→A (in vitro)?
Its Papp B→A is 1.5 ×10⁻⁶ cm/s.

For `CN[C@H](CC(C)C)C(=O)N[C@H]1C(=O)N[C@@H](CC(N)=O)C(=O)N[C@H]2C(=O)N[C@H]3C(=O)N[C@H](C(=O)N[C@H](C(=O)O)c4cc(O)cc(O)c4-c4cc3ccc4O)[C@H](O)c3ccc(c(Cl)c3)Oc3cc2cc(c3O[C@@H]2O[C@H](CO)[C@@H](O)[C@H](O)[C@H]2O[C@H]2C[C@](C)(N)[C@H](O)[C@H](C)O2)Oc2ccc(cc2Cl)[C@H]1O.Cl` [Reference standard], which “MIC, average of triplicate” value (C. difficile; ATCC 7000057 QC (C. difficile)) is on record?
The value was 1 µg/mL.

And the “MIC, average of triplicate” value (C. difficile; RMA 24504, ribotype 027)?
The value was 1 µg/mL.

What about the “MIC, average of triplicate” value (C. difficile; RMA 24510, ribotype 027) of the same compound?
The value was 1 µg/mL.

What about the “MIC, average of triplicate” value (C. difficile; RMA 24519, ribotype 027) of the same compound?
Its value is 1 µg/mL.

And the “MIC, average of triplicate” value (C. difficile; RMA 24527, ribotype 014)?
The value was 1 µg/mL.

What about the “MIC, average of triplicate” value (C. difficile; RMA 24529, ribotype 014) of the same compound?
Its value is 1 µg/mL.

What about the “MIC, average of triplicate” value (C. difficile; RMA 24541, ribotype 020) of the same compound?
Its value is 1 µg/mL.

And the “MIC, average of triplicate” value (C. difficile; RMA 24543, ribotype 020)?
Its value is 1 µg/mL.

And the “MIC, average of triplicate” value (C. difficile; RMA 24547, ribotype 014)?
The value was 1 µg/mL.

And the “MIC, average of triplicate” value (C. difficile; RMA 24561, ribotype 078)?
The value was 1 µg/mL.

And the “MIC, average of triplicate” value (C. difficile; RMA 24567, ribotype 020)?
Its value is 1 µg/mL.

What about the “MIC, average of triplicate” value (C. difficile; RMA 24575, ribotype 078) of the same compound?
Its value is 1 µg/mL.

What about the “MIC, average of triplicate” value (C. difficile; RMA 24594, ribotype 106) of the same compound?
The value was 4 µg/mL.

What about the “MIC, average of triplicate” value (C. difficile; RMA 24601, ribotype 106) of the same compound?
Its value is 2 µg/mL.

What about the “MIC, average of triplicate” value (C. difficile; RMA 24605, ribotype 002) of the same compound?
Its value is 1 µg/mL.

And the “MIC, average of triplicate” value (C. difficile; RMA 24607, ribotype 106)?
The value was 1 µg/mL.

And the “MIC, average of triplicate” value (C. difficile; RMA 24608, ribotype 002)?
Its value is 1 µg/mL.

And the “MIC, average of triplicate” value (C. difficile; RMA 24615, ribotype 005)?
The value was 2 µg/mL.

What about the “MIC, average of triplicate” value (C. difficile; RMA 24628, ribotype 012) of the same compound?
Its value is 1 µg/mL.

What about the “MIC, average of triplicate” value (C. difficile; RMA 24641, ribotype 001/072) of the same compound?
Its value is 1 µg/mL.

And the “MIC, average of triplicate” value (C. difficile; RMA 24643, ribotype 001/072)?
Its value is 1 µg/mL.

And the “MIC, average of triplicate” value (C. difficile; RMA 24646, ribotype 001/072)?
The value was 1 µg/mL.

And the “MIC, average of triplicate” value (C. difficile; RMA 24655, ribotype 005)?
Its value is 2 µg/mL.

And the “MIC, average of triplicate” value (C. difficile; RMA 24678, ribotype 012)?
The value was 4 µg/mL.

What about the “MIC, average of triplicate” value (C. difficile; RMA 24683, ribotype 027) of the same compound?
The value was 2 µg/mL.

What about the “MIC, average of triplicate” value (C. difficile; RMA 24690, ribotype 027) of the same compound?
The value was 4 µg/mL.

What about the “Average MIC (geometric mean, all 25 strains)” value (C. difficile; reference standard powder stock solution stored at −70 C) of the same compound?
The value was 1.5 µg/mL.

And the “MIC, average of triplicate” value ([1]; ATCC 29213 SA QC (S. aureus))?
The value was 2 µg/mL.

And the “vancomycin MIC from triplicate test, best of 3 values” ([1]; ATCC 29213 SA QC)?
Its value is 2 µg/mL.

Which absorption [2] does the source give for `CN[C@H](CC(C)C)C(=O)N[C@H]1C(=O)N[C@@H](CC(N)=O)C(=O)N[C@H]2C(=O)N[C@H]3C(=O)N[C@H](C(=O)N[C@H](C(=O)O)c4cc(O)cc(O)c4-c4cc3ccc4O)[C@H](O)c3ccc(c(Cl)c3)Oc3cc2cc(c3O[C@@H]2O[C@H](CO)[C@@H](O)[C@H](O)[C@H]2O[C@H]2C[C@](C)(N)[C@H](O)[C@H](C)O2)Oc2ccc(cc2Cl)[C@H]1O` [vancomycin] here?
Its absorption is “cannot be absorbed”.

What about the “concentrations in the colon” value [2] of the same compound?
Its value is 500 to 1000 µg/mL.
